Like-named read-outs stand apart in the source and are kept apart here.
Tests used:
[1] = test system: H1N1 pdm09 virus (A/Pdm/09); assay type: cell-based, human influenza A virus
[2] = in vivo evaluation in mice of toxicity (change in weight); conditions: gavage; oseltamivir 10 mg/kg/day, etilefrine 3 mg/kg/day, diltiazem 90 mg/kg/day
Protocol: FIG. 4. In vivo evaluation of the toxicity of the following molecules: oseltamivir, monensin, diltiazem, etilefrine and isoxicam. The “Saline” control indicates the weight of mice treated with PBS. The curve represents the change in weight (weight gain/loss expressed as a percentage) of the various groups of mice over time.
The “Saline” control denotes untreated mice, having been treated with PBS.
The following daily amounts were administered by gavage to the mice: • oseltamivir: 10 mg/kg/day • etilefrine: 3 mg/kg/day • diltiazem: 90 mg/kg/day

H1N1 pdm09 virus [3] = experiment: in vivo antiviral effect, treatment started before H1N1 infection of mice; conditions: B57BL/6 mice, gavage on Day-1, day of and 3 days following infection
Protocol: B57BL/6 mice (age 7-8 weeks) are treated by gavage before (Day-1), the day of, and 3 days following infection with H1N1 pdm09 virus, according to the protocol shown diagrammatically in FIG. 5A.
The following parameters are evaluated over time: • FIG. 5B: Survival rate over time, up to 14 days post-infection; • FIG. 5C: Weight loss and gain observed over time; • FIG. 5D: Viral titer in the lungs of infected and treated mice.

H1N1 pdm09 virus [4] = experiment: in vivo antiviral effect, treatment 24 hours after H1N1 infection of mice; conditions: B57BL/6 mice, gavage, treatment 24 hours after infection, up to 14 days post-infection
Protocol: B57BL/6 mice (age 7-8 weeks) are treated by gavage after infection with H1N1 pdm09 virus, according to the protocol shown diagrammatically in FIG. 6A. Survival rate over time is measured for infected mice receiving no treatment (FIG. 6B); treated with oseltamivir (FIG. 6C); and treated with diltiazem (FIG. 6D). The survival rate of mice treated with oseltamivir, and of those treated with diltiazem, is 100%.

H1N1 pdm09 virus [5] = assay type: cell-based, human influenza A virus
influenza H1N1 pdm09 = assay type: cell-based, influenza virus
[6] = test system: A/Moscow/10/99 (H3N2) strain; assay type: cell-based, human influenza A virus; conditions: A549 cells, FIG. 2
H1N1 pdm09 = assay type: cell-based, human influenza A virus

With `COc1ccc([C@@H]2Sc3ccccc3N(CCN(C)C)C(=O)[C@@H]2OC(C)=O)cc1` [diltiazem] the normalized virus production [1] was “significant decrease”, the “virus production, comparison of the conditions” value ([1]; diltiazem alone at 9 nM, FIG. 3B) was “best results” and the “toxicity (change in weight of the mice)” value [2] was “clearly nontoxic”. For the same molecule, the “survival at 14 days” value (H1N1 pdm09 virus [3]) was 90%, the survival rate (H1N1 pdm09 virus [4]) was 100% and the “decrease of relative viral titer / virus production relative to the control value” (H1N1 pdm09 virus [5]) was “about 20%”. The “antiviral effect on virus production” value (influenza H1N1 pdm09; diltiazem 9 μM) was “no significant antiviral affect” and the “antiviral effect on virus production” value (influenza H1N1 pdm09; diltiazem 90 μM, compared with oseltamivir 1 μM) was “comparable antiviral effect”.

For `CCNCC(O)c1cccc(O)c1` (stereo not drawn) [etilefrine], the normalized virus production [1] was “significant decrease”, the antiviral effects [6] was “significant from the lowest concentration tested” and the “concentration that completely inhibits virus production” value [6] was 0.018 µM. The “toxicity (change in weight of the mice)” value [2] was “clearly nontoxic” and the “survival at 14 days” value (H1N1 pdm09 virus [3]) was 70%.

In the case of `CC(=O)O[C@H]1C[C@H](O[C@H]2[C@@H](O)C[C@H](O[C@H]3[C@@H](O)C[C@H](O[C@H]4CC[C@@]5(C)[C@H](CC[C@@H]6[C@@H]5C[C@@H](O)[C@]5(C)[C@@H](C7=CC(=O)OC7)CC[C@]65O)C4)O[C@@H]3C)O[C@@H]2C)O[C@H](C)[C@H]1O[C@@H]1O[C@H](CO)[C@@H](O)[C@H](O)[C@H]1O` [lanatoside C], the normalized virus production [1] is reported as “did not make it possible to confirm the antiviral activity”.

With `CC[C@@]1([C@@H]2O[C@@H]([C@H]3O[C@@](O)(CO)[C@H](C)C[C@@H]3C)C[C@@H]2C)CC[C@H]([C@]2(C)CC[C@]3(C[C@H](O)[C@@H](C)[C@@H]([C@@H](C)[C@@H](OC)[C@H](C)C(=O)O)O3)O2)O1` [monensin] the normalized virus production [1] was “significant decrease” and the “decrease of virus production relative to the control value” (H1N1 pdm09 virus [5]) was “about 72%”.

In the case of `CCOC(=O)C1=C[C@@H](OC(CC)CC)[C@H](NC(C)=O)[C@@H](N)C1` [oseltamivir], the “virus production decreased to” value ([1]; oseltamivir alone, FIGS. 3A and 3B) is reported as “about 40%”, the “toxicity (change in weight of the mice)” value [2] is reported as “highest cell toxicity” and the “survival at 14 days” value (H1N1 pdm09 virus [3]) is reported as 60%. The survival rate (H1N1 pdm09 virus [4]) was 100%, the “virus production decreased to a value relative to the control value” (H1N1 pdm09 virus [5]) was “about 55%” and the “decrease of virus production relative to the control value” (influenza H1N1 pdm09) was “up to 3 log 10”. For the same molecule, the “antiviral effect on virus production” value (influenza H1N1 pdm09; oseltamivir 0.1 μM) was “no significant antiviral affect”, the “Dose Oseltamivir” value (H1N1 pdm09; Fa = 0.90 (90%)) was 7.50797 µM and the “Dose Oseltamivir” value (H1N1 pdm09; Fa = 0.95 (95%)) was 62.435 µM. For the same molecule, the “Dose Oseltamivir” value (H1N1 pdm09; Fa = 0.97 (97%)) was 281.813 µM.

With `NC(=O)c1ncn([C@@H]2O[C@H](CO)[C@@H](O)[C@H]2O)n1` [ribavirin] the normalized virus production [1] was “significant decrease”.
